According to ChEMBL document CHEMBL1149017, “Herbicidal effects of geldanamycin and nigericin, antibiotics from Streptomyces hygroscopicus” (J Nat Prod, 1986):
The source made the active and inactive calls. The calls are words filed in the database; no cut-off is given here.

Assays:
[1] = test system: Lepidium sativum; assay: Herbicidal activity against Lepidium sativum assessed as inhibition of radicle growth of seeds at 1 to 2 ppm after 69 to 75 hrs in dark; assay type: functional; design: scale not given: the % may be the effect or the level left
[2] = test system: Lepidium sativum; assay: Herbicidal activity against Lepidium sativum assessed as inhibition of radicle growth of seed at 3 to 4 ppm after 69 to 75 hrs in dark; assay type: functional, organism-based
[3] = test system: Rattus norvegicus; assay: Acute toxicity in rat at 2500 to 5000 mg/kg, po; assay type: organism-based; design: dose 2500-5000 mg/kg, route oral; conditions: in vivo
[4] = Toxicity in ip dosed mouse; assay type: organism-based; conditions: in vivo
[5] = test system: Lepidium sativum; assay: Herbicidal activity against Lepidium sativum assessed as occurrence of browning and tissue necrosis; assay type: functional, organism-based

| Structure (SMILES) | Activity [1] | Activity [2] | Activity [3] | LD50 [4] | Activity [5] |
| --- | --- | --- | --- | --- | --- |
| COC1=C2C[C@@H](C)C[C@H](OC)[C@H](O)[C@@H](C)/C=C(\C)[C@H](OC(N)=O)[C@@H](OC)/C=C\C=C(/C)C(=O)NC(=CC1=O)C2=O [GELDANAMYCIN] | 50% | Active | Toxic | 1 mg/kg | – |
| CO[C@@H]1C[C@@H](C[C@H]2CC[C@H](C)[C@H]([C@@H](C)C(=O)O)O2)O[C@]2(O[C@](C)([C@H]3CC[C@@](C)([C@@H]4O[C@@H]([C@H]5O[C@@](O)(CO)[C@H](C)C[C@@H]5C)C[C@@H]4C)O3)C[C@H]2C)[C@@H]1C [NIGERICIN] | 50% | Active | – | 10 mg/kg | inactive |
